From US20220047507A1, “MELFLUFEN DOSAGE REGIMENS FOR CANCER” (ONCOPEPTIDES AB, priority 2015, published 2022)

What was measured:
[1] = system: primary MM cells from patients; details: in vitro, incl. patients relapsing after bortezomib, lenalidomide, dexamethasone; cited from earlier work
[2] = system: relapsed-refractory multiple myeloma (RRMM) patients; assay: Safety in patients with RRMM, Example 2b, time point (bii); assay type: in vivo, human; details: of the 57 patients in the ongoing melflufen study
[3] = system: relapsed-refractory multiple myeloma (RRMM) patients; assay: Efficacy in patients with RRMM, Example 2a; assay type: in vivo, human; details: Evaluable ≥ 1 cycle, n 35
[4] = system: relapsed-refractory multiple myeloma (RRMM) patients; assay: Safety in patients with RRMM, Example 2a; assay type: in vivo, human; details: 40 mg
Method: Example 2: An open label single arm extension on the dose of 40 mg over 30 minutes of Example 1. Intravenous melflufen was administered over 30 minutes on Day 1 of a 21-day cycle or 28-day cycle (in combination with 40 mg dexamethasone (oral or intravenous) treatment on Days 1, 8 and 15) for at least 2 cycles, and up to the stated number of cycles. The cycle length was extended during the Example 2 Clinical Trial from 21 to 28 days per a protocol amendment to allow for a better recovery of neutrophils and thrombocytes before a new cycle is initiated.
Example 2a results are from a data cut-off of time point (a). Example 2b results are from a data cut-off of time point (bi) for the efficacy data, which was approximately 12 months after time point (a); and from a data cut-off of time point (bii) for the safety data, which was approximately 10 months after time point (a).
As mentioned above, by the data cut-off for Example 2a 38 patients had been dosed with 162 doses of melflufen hydrochloride 40 mg over 30 minutes. Median number of cycles was 3 (1-13) and median duration of treatment was 13 weeks (2-51 weeks). The dose intensity was 96% (77-100).

MM cells = details: in vitro; cited from earlier work
[5] = system: MM cell lines resistant to dexamethasone, bortezomib and melphalan; details: in vitro; cited from earlier work
[6] = system: patients with relapsed and/or relapsed-refractory multiple myeloma; assay: Safety of various dosages of melflufen, TEAEs (Example 1); assay type: in vivo, human
Method: Example 1: 4 dose levels (15, 25, 40 and 55 mg) of intravenous melflufen hydrochloride (excluding the mass of the salt component) in 290 to 370 ml glucose solution administered over 30 minutes on Day 1 of a 21-day cycle (in combination with dexamethasone treatment on Days 1, 8 and 15), for at least 1 cycle and up to 12 cycles, were evaluated.
Treatment emergent adverse events (TEAEs) of any grade were recorded in 29 patients that took part in Example 1 (4 patients at 15 mg dosage of melflufen over 30 minutes; 7 patients at 25 mg dosage of melflufen over 30 minutes; 12 patients at 40 mg dosage of melflufen over 30 minutes; and 6 patients at 55 mg dosage of melflufen over 30 minutes).

[7] = 55 mg melflufen hydrochloride, 6 patients
[8] = Example 1, all dose levels, 29 patients

In the case of `CCOC(=O)[C@H](Cc1ccc(F)cc1)NC(=O)[C@@H](N)Cc1ccc(N(CCCl)CCCl)cc1.Cl` [melflufen, L-Melphalanyl-4-fluoro-L-phenylalanine ethyl ester], the “cytotoxic activity in primary MM cells” value [1] is given as “Potent cytotoxic activity”, the “fatal events while on treatment or within 30 days of last dose” value [2] is given as 11% and the “Positive Response (PR), patients” value [3] is given as 9. For the same molecule, the “Progressive Disease (PD), patients” value [3] was 8, the “Serious TEAE related to melflufen: Diarrhoea” value ([4]; Example 2a) was “(3) %” and the “Serious TEAE related to melflufen: Diarrhoea, number of patients” value ([4]; Example 2a) was 1. The “Serious TEAE related to melflufen: Escherichia coli sepsis” value ([4]; Example 2a) was “(3) %”, the “Serious TEAE related to melflufen: Escherichia coli sepsis, number of patients” value ([4]; Example 2a) was 1 and the “Serious TEAE related to melflufen: Febrile Neutropenia” value ([4]; Example 2a) was “(5) %”. For the same molecule, the “Serious TEAE related to melflufen: Febrile Neutropenia, number of patients” value ([4]; Example 2a) was 2, the “Serious TEAE related to melflufen: Neutropenia” value ([4]; Example 2a) was “(3) %” and the “Serious TEAE related to melflufen: Neutropenia, number of patients” value ([4]; Example 2a) was 1. For the same molecule, the “Serious TEAE related to melflufen: Pneumonia” value ([4]; Example 2a) was “(8) %”, the “Serious TEAE related to melflufen: Pneumonia, number of patients” value ([4]; Example 2a) was 3 and the “Serious TEAE related to melflufen: Pyrexia” value ([4]; Example 2a) was “(5) %”. For the same molecule, the “Serious TEAE related to melflufen: Pyrexia, number of patients” value ([4]; Example 2a) was 2, the “Anemia, treatment related ≥grade 3” value ([4]; Example 2a N = 38) was “(40) %” and the “Any treatment-related grade 3 and/or grade 4, grade 4” value ([4]; Example 2a N = 38) was “(50) %”. The “Any treatment-related grade 3 and/or grade 4, ≥grade 3” value ([4]; Example 2a N = 38) was 87%, the “Asthenia, treatment related ≥grade 3” value ([4]; Example 2a N = 38) was “(5) %” and the “Blood and lymphatic system disorders, treatment related grade 4” value ([4]; Example 2a N = 38) was “(47) %”. For the same molecule, the “Blood and lymphatic system disorders, treatment related ≥grade 3” value ([4]; Example 2a N = 38) was “(76) %”, the “Fatigue, treatment related ≥grade 3” value ([4]; Example 2a N = 38) was “(5) %” and the “Febrile neutropenia, treatment related ≥grade 3” value ([4]; Example 2a N = 38) was “(5) %”. The “General disorders and administration site conditions, treatment related ≥grade 3” value ([4]; Example 2a N = 38) was “(18) %”, the “Hyperglycemia, treatment related grade 4” value ([4]; Example 2a N = 38) was “(3) %” and the “Hyperglycemia, treatment related ≥grade 3” value ([4]; Example 2a N = 38) was “(8) %”. The “Infections and infestations, treatment related ≥grade 3” value ([4]; Example 2a N = 38) was “(8) %”, the “Investigations, treatment related ≥grade 3” value ([4]; Example 2a N = 38) was “(10) %” and the “Leukopenia, treatment related grade 4” value ([4]; Example 2a N = 38) was “(13) %”. The “Leukopenia, treatment related ≥grade 3” value ([4]; Example 2a N = 38) was “(34) %”, the “Metabolism and nutrition disorders, treatment related grade 4” value ([4]; Example 2a N = 38) was “(3) %” and the “Metabolism and nutrition disorders, treatment related ≥grade 3” value ([4]; Example 2a N = 38) was “(8) %”. The “Neutropenia, treatment related grade 4” value ([4]; Example 2a N = 38) was “(26) %”, the “Neutropenia, treatment related ≥grade 3” value ([4]; Example 2a N = 38) was “(53) %” and the “Neutrophil count decreased, treatment related ≥grade 3” value ([4]; Example 2a N = 38) was “(10) %”. The “Pneumonia, treatment related ≥grade 3” value ([4]; Example 2a N = 38) was “(8) %”, the “Pyrexia, treatment related ≥grade 3” value ([4]; Example 2a N = 38) was “(5) %” and the “Thrombocytopenia, treatment related grade 4” value ([4]; Example 2a N = 38) was “(34) %”. For the same molecule, the “Thrombocytopenia, treatment related ≥grade 3” value ([4]; Example 2a N = 38) was “(68) %”, the “Any treatment-related grade 3 and/or grade 4, ≥grade 3” value ([4]; Example 2a N = 38, listed as melflufen hydrochloride) was “(87) %” and the “patients with Serious TEAEs” value ([4]; Example 2a, 38 patients) was 34%. For the same molecule, the “patients with TEAEs leading to death” value ([4]; Example 2a, 38 patients) was 8%, the “patients with TEAEs leading to dose reduction of melflufen” value ([4]; Example 2a, 38 patients) was 18% and the “patients with grade 3 or 4 TEAEs” value ([4]; Example 2a, 38 patients) was 90%. For the same molecule, the “patients with treatment-related Serious TEAEs” value ([4]; Example 2a, 38 patients) was 21%, the “intracellular exposure (as AUC) of alkylating agents compared to an equimolar dosage of melphalan” value (MM cells) was at least 20 fold and the “cytotoxic activities in resistant MM cell lines” value [5] was “concentrations similar to those observed in the parenteral, non-resistant cell lines”. The “Any treatment-related Grade 3 and 4 TEAE, n patients” value ([6]; 15 mg over 30 min (n = 4)) was 2, the “Any treatment-related Grade 3 and 4 TEAE, total number of events” value ([6]; 15 mg over 30 min (n = 4)) was “(4)” and the “Grade 3 and 4 febrile neutropenia, n patients” value ([6]; 15 mg over 30 min (n = 4)) was 1. The “Grade 3 and 4 febrile neutropenia, total number of events” value ([6]; 15 mg over 30 min (n = 4)) was “(1)”, the “Grade 3 and 4 neutropenia, n patients” value ([6]; 15 mg over 30 min (n = 4)) was 0 and the “Grade 3 and 4 neutropenia, total number of events” value ([6]; 15 mg over 30 min (n = 4)) was “(0)”. The “Grade 3 and 4 thrombocytopenia, n patients” value ([6]; 15 mg over 30 min (n = 4)) was 1, the “Grade 3 and 4 thrombocytopenia, total number of events” value ([6]; 15 mg over 30 min (n = 4)) was “(1)” and the “Any treatment-related Grade 3 and 4 TEAE, n patients” value ([6]; 25 mg over 30 min (n = 7)) was 5. For the same molecule, the “Any treatment-related Grade 3 and 4 TEAE, total number of events” value ([6]; 25 mg over 30 min (n = 7)) was “(13)”, the “Grade 3 and 4 febrile neutropenia, n patients” value ([6]; 25 mg over 30 min (n = 7)) was 0 and the “Grade 3 and 4 febrile neutropenia, total number of events” value ([6]; 25 mg over 30 min (n = 7)) was “(0)”. The “Grade 3 and 4 neutropenia, n patients” value ([6]; 25 mg over 30 min (n = 7)) was 2, the “Grade 3 and 4 neutropenia, total number of events” value ([6]; 25 mg over 30 min (n = 7)) was “(6)” and the “Grade 3 and 4 thrombocytopenia, n patients” value ([6]; 25 mg over 30 min (n = 7)) was 2. The “Grade 3 and 4 thrombocytopenia, total number of events” value ([6]; 25 mg over 30 min (n = 7)) was “(3)”, the “Any treatment-related Grade 3 and 4 TEAE, n patients” value ([6]; 40 mg over 30 min (n = 12)) was 7 and the “Any treatment-related Grade 3 and 4 TEAE, total number of events” value ([6]; 40 mg over 30 min (n = 12)) was “(23)”. For the same molecule, the “Grade 3 and 4 febrile neutropenia, n patients” value ([6]; 40 mg over 30 min (n = 12)) was 1, the “Grade 3 and 4 febrile neutropenia, total number of events” value ([6]; 40 mg over 30 min (n = 12)) was “(2)” and the “Grade 3 and 4 neutropenia, n patients” value ([6]; 40 mg over 30 min (n = 12)) was 4. For the same molecule, the “Grade 3 and 4 neutropenia, total number of events” value ([6]; 40 mg over 30 min (n = 12)) was “(8)”, the “Grade 3 and 4 thrombocytopenia, n patients” value ([6]; 40 mg over 30 min (n = 12)) was 4 and the “Grade 3 and 4 thrombocytopenia, total number of events” value ([6]; 40 mg over 30 min (n = 12)) was “(9)”. The “Anemia, treatment related ≥grade 3” value [6, 7] was “(33) %”, the “Any treatment-related grade 3 and/or grade 4, ≥grade 3” value [6, 7] was “(100) %” and the “Blood and lymphatic system disorders, treatment related ≥grade 3” value [6, 7] was “(100) %”. The “Cutaneous rash, treatment related ≥grade 3” value [6, 7] was “(17) %”, the “Fatigue, treatment related ≥grade 3” value [6, 7] was “(17) %” and the “General disorders and administration site conditions, treatment related ≥grade 3” value [6, 7] was “(17) %”. The “Infections and infestations, treatment related ≥grade 3” value [6, 7] was “(50) %”, the “Neutropenia, treatment related ≥grade 3” value [6, 7] was “(100) %” and the “Pancytopenia, treatment related ≥grade 3” value [6, 7] was “(17) %”. For the same molecule, the “Pneumonia, treatment related ≥grade 3” value [6, 7] was “(33) %”, the “Sepsis, treatment related ≥grade 3” value [6, 7] was “(17) %” and the “Skin and subcutaneous disorders, treatment related ≥grade 3” value [6, 7] was “(17) %”. The “Thrombocytopenia, treatment related ≥grade 3” value [6, 7] was “(83) %”, the “Urinary tract infection, treatment related ≥grade 3” value [6, 7] was “(17) %” and the “Any treatment-related Grade 3 and 4 TEAE, n patients” value ([6]; 55 mg over 30 min (n = 6)) was 6. The “Any treatment-related Grade 3 and 4 TEAE, total number of events” value ([6]; 55 mg over 30 min (n = 6)) was “(58)”, the “Grade 3 and 4 febrile neutropenia, n patients” value ([6]; 55 mg over 30 min (n = 6)) was 1 and the “Grade 3 and 4 febrile neutropenia, total number of events” value ([6]; 55 mg over 30 min (n = 6)) was “(1)”. For the same molecule, the “Grade 3 and 4 neutropenia, n patients” value ([6]; 55 mg over 30 min (n = 6)) was 5, the “Grade 3 and 4 neutropenia, total number of events” value ([6]; 55 mg over 30 min (n = 6)) was “(17)” and the “Grade 3 and 4 thrombocytopenia, n patients” value ([6]; 55 mg over 30 min (n = 6)) was 5. The “Grade 3 and 4 thrombocytopenia, total number of events” value ([6]; 55 mg over 30 min (n = 6)) was “(28)”, the “related Grade 3 or 4 neutropenia at least once, patients” value ([6]; Example 1, all dose levels) was 38% and the “related Grade 3 or 4 thrombocytopenia at least once, patients” value ([6]; Example 1, all dose levels) was 41%. The “total number of TEAEs reported” value ([6]; Example 1, all dose levels 15-55 mg, 29 patients) was 157, the “Grade 3 or 4 TEAEs, regardless of relationship, patients” value [6, 8] was 76% and the “anemia, all grades, regardless of relationship” value [6, 8] was 59%. For the same molecule, the “anemia, all grades, regardless of relationship, n patients” value [6, 8] was 17, the “nausea, all grades, regardless of relationship” value [6, 8] was 38% and the “nausea, all grades, regardless of relationship, n patients” value [6, 8] was 11. The “neutropenia, all grades, regardless of relationship” value [6, 8] was 41%, the “neutropenia, all grades, regardless of relationship, n patients” value [6, 8] was 12 and the “thrombocytopenia, all grades, regardless of relationship” value [6, 8] was 69%. The “thrombocytopenia, all grades, regardless of relationship, n patients” value [6, 8] was 20 and the “Grade 3 or 4 TEAEs, regardless of relationship, n patients” value ([6]; Example 1, all dose levels, of 29 patients) was 22.
